Consider two compounds from article PMC3685217, “Activation of IP3 receptors requires an endogenous 1-8-14 calmodulin-binding motif” (Biochemical Journal, 2012).

Test [1] has as its target T1, IBC (residues 224–604) of rat IP3R1 (Rattus norvegicus, UniProt P29994, DEL318-332).
T1 construct: IBC (residues 224–604) of rat IP3R1 were amplified by PCR; His6 (N, cleaved yes); made in house; host or cells: Escherichia coli BL21(DE3)
Description: [3H]IP3 equilibrium-competition binding to IBC. Particulars: 3 mM peptide, [3H]IP3 1.5 nM. From the text:
(§1) The NT (residues 1–604) and IBC (residues 224–604) of rat IP3R1 were amplified by PCR from the full-length receptor clone lacking the SI splice region (GenBank® accession number GQ233032.1) as described previously. The fragments were ligated into pTrcHis A (Invitrogen) to allow expression of N-terminally His6-tagged proteins. Mutagenesis of the 1-8-14 motif within the NT used the QuikChange® II XL site-directed mutagenesis kit (Stratagene) for single mutants (F53E, L60E, Y66E and K52E) and the QuikChange® multi-site-directed mutagenesis kit for the double mutant (F53E and Y66E). The primers used are listed in Supplementary Table S2 (at http://www.BiochemJ.org/bj/449/bj4490039add.htm). The same primers and conditions were used for mutagenesis of full-length IP3R using IP3R1 in the pENTR 1A vector. Full-length constructs were subcloned into pcDNA3.2/V5-DEST for expression in DT40 cells. The complete sequence of every mutant construct was verified by sequencing.
(§2) The pTrcHis constructs were used for expression of N-terminally His6-tagged proteins in Escherichia coli strain BL21(DE3) cells. Before use for [^3H]IP3 binding, proteins were cleaved from the His6 tags using biotinylated thrombin (Novagen) at the engineered thrombin-cleavage site. Complete cleavage was verified by Western blotting using an anti-His6 antibody. The proteins were used for [^3H]IP3 binding without further purification.
(§3) Equilibrium-competition binding assays were performed at 4°C for 5 min in CLM (500 μl) with a free Ca^2+ concentration of 220 nM and containing [^3H]IP3 (0.75–1.5 nM), bacterial lysate (10 μg of protein for IBC and 100 μg of protein for NT) or cerebellar membranes (50 μg of protein) and competing ligands. Non-specific binding was defined by addition of 10 μM IP3. Bound and free [^3H]IP3 were separated by centrifugation at 20000 g for 5 min, after addition of poly(ethylene glycol) (15% final concentration) and γ-globulin (0.75 mg) for soluble proteins. Results were analysed by fitting to a Hill equation (using GraphPad Prism) from which the IC50 (half-maximal inhibitory concentration) and thereby the Kd (equilibrium dissociation constant) were calculated.

Test [2] concerns the target T2, rat IP3R1 (Rattus norvegicus, UniProt P29994).
T2 construct: expressed in transfected cells; host or cells: DT40 cells (chicken B cells, all endogenous IP3R genes disrupted) stably expressing rat IP3R1
Nature of the test: Patch-clamp recording from patches excised from the outer nuclear envelope of DT40 cells. The class given is biochemical. The conditions noted are these: IP3 10 μM. The procedure:
Currents were recorded from patches excised from the outer nuclear envelope of DT40 cells expressing recombinant rat IP3R1 using symmetrical caesium methanesulfonate (140 mM) as the charge-carrier. The composition of recording solutions and methods of analysis were otherwise as described previously.
(In general: In patch-clamp work, channel activity is measured electrically.)

The target of test [3] is T2, rat IP3R1. Description: IP3-evoked Ca2+ release from the intracellular stores of permeabilized DT40-IP3R1 cells. The class given is cell-based. The procedure:
The free Ca^2+ concentration of the intracellular stores of permeabilized cells was measured using a low-affinity Ca^2+ indicator trapped within the endoplasmic reticulum as reported previously. Briefly, DT40 cells (4×10^7 cells/ml) were suspended in HBS (Hepes-buffered saline: 135 mM NaCl, 5.9 mM KCl, 11.6 mM Hepes, 1.5 mM CaCl2, 11.5 mM glucose and 1.2 mM MgCl2, pH 7.3) containing 1 mg/ml BSA, 0.4 mg/ml Pluronic F127 and 20 μM mag-fluo-4/AM (Invitrogen). After 1 h at 20°C in the dark with gentle shaking, cells were centrifuged at 650 g for 2 min and resuspended to 10^7 cells/ml in Ca^2+-free CLM (cytosol-like medium) (20 mM NaCl, 140 mM KCl, 1 mM EGTA, 20 mM Pipes and 2 mM MgCl2, pH 7.0) containing 20 μg/ml saponin. After incubation at 37°C with gentle shaking for 4 min, permeabilized cells were centrifuged at 650 g for 2 min and resuspended in Mg^2+-free CLM, supplemented with CaCl2 to give a final free Ca^2+ concentration of 220 nM. The free Ca^2+ concentration of CLM was calculated using the MaxChelator program (http://maxchelator.stanford.edu) and then measured using fluo-3 or fura-2. Cells were then washed, resuspended in Mg^2+-free CLM containing 10 μM FCCP (carbonyl cyanide p-trifluoromethoxyphenylhydrazone) to inhibit mitochondria, and distributed into a 96-well plate (10^6 cells in 50 μl of CLM/well). After centrifugation, fluorescence from the luminal indicator was recorded using a FlexStation II platereader (Molecular Devices) equipped to allow automated additions. In all experiments, the intracellular stores were allowed to load to steady-state with Ca^2+ after addition of MgATP. IP3 was then added with thapsigargin (1 μM, to inhibit Ca^2+ reuptake). The Ca^2+ release evoked by IP3 is expressed as a fraction of the ATP-dependent Ca^2+ uptake.

The target in test [4] is T3, NT (residues 1–604) of rat IP3R1 (Rattus norvegicus, UniProt P29994, DEL318-332).
T3 construct: The NT (residues 1–604) and IBC (residues 224–604) of rat IP3R1; His6 (N, cleaved yes); made in house; host or cells: Escherichia coli BL21(DE3)
Nature of the test: [3H]IP3 equilibrium-competition binding to NT.
Source text: as §1, §2, §3

Test [5] addresses T4, full-length IP3R1 (Rattus norvegicus, UniProt P29994).
T4 construct: membranes from rat cerebellum (full-length IP3R, FL); from tissue; host or cells: rat cerebellum membranes
Description: [3H]IP3 binding to membranes from rat cerebellum. The conditions noted are these: 3 mM peptide, [3H]IP3 1.5 nM. The procedure: as §3
Figure 4 1-8-14 peptide directly stimulates IP3 binding to the NT of IP3R (A) Specific equilibrium binding of [^3H]IP3 (1.5 nM) to membranes from rat cerebellum (full-length IP3R, FL) or to isolated NT or IBC, alone or in the presence of 3 mM of the indicated peptide. *P<0.05 and **P<0.01 relative to control; comparisons were performed on the raw data. (B) Concentration-dependent effects of 1-8-14 peptide on specific [^3H]IP3 binding to NT in CLM with 220 nM free Ca^2+ concentration, plotted as the increase in specific [^3H]IP3 binding as a percentage of that evoked by the maximal concentration of peptide. […]

Test [6] has as its target T5, NT of rat IP3R1 with F53E mutation (Rattus norvegicus, UniProt P29994, DEL318-332/F53E).
T5 construct: The NT (residues 1–604) and IBC (residues 224–604) of rat IP3R1; His6 (N, cleaved yes); made in house; host or cells: Escherichia coli BL21(DE3)
Description: [3H]IP3 equilibrium-competition binding to NT F53E. The conditions noted are these: 100 μM peptide, [3H]IP3 1.5 nM.
Source text: as §1, §2, §3

Test [7] has as its target T6, full-length IP3R (wild-type IP3R1) (Rattus norvegicus, UniProt P29994).
T6 construct: expressed in transfected cells; host or cells: DT40 cells (chicken B cells, all endogenous IP3R genes disrupted) stably expressing rat IP3R1
Description: [3H]IP3 binding to full-length IP3R in permeabilized DT40 cells. The conditions noted are these: 100 μM peptide, [3H]IP3 1.5 nM, not increased for L60E or FY mutants.

Test [8] has as its target T7, NT of rat IP3R1 with Y66E mutation (Rattus norvegicus, UniProt P29994, DEL318-332/Y66E).
T7 construct: The NT (residues 1–604) and IBC (residues 224–604) of rat IP3R1; His6 (N, cleaved yes); made in house; host or cells: Escherichia coli BL21(DE3)
Description: [3H]IP3 equilibrium-competition binding to NT Y66E. Particulars: 100 μM peptide, [3H]IP3 1.5 nM.
Source text: as §1, §2, §3

Test [9] addresses T8, NT of rat IP3R1 with L60E mutation (Rattus norvegicus, UniProt P29994, DEL318-332/L60E).
T8 construct: The NT (residues 1–604) and IBC (residues 224–604) of rat IP3R1; His6 (N, cleaved yes); made in house; host or cells: Escherichia coli BL21(DE3)
Description: [3H]IP3 equilibrium-competition binding to NT L60E. The conditions noted are these: 100 μM peptide, [3H]IP3 1.5 nM.
Source text: as §1, §2, §3

T2 sequence (P29994 1-2735 isoform P29994-2): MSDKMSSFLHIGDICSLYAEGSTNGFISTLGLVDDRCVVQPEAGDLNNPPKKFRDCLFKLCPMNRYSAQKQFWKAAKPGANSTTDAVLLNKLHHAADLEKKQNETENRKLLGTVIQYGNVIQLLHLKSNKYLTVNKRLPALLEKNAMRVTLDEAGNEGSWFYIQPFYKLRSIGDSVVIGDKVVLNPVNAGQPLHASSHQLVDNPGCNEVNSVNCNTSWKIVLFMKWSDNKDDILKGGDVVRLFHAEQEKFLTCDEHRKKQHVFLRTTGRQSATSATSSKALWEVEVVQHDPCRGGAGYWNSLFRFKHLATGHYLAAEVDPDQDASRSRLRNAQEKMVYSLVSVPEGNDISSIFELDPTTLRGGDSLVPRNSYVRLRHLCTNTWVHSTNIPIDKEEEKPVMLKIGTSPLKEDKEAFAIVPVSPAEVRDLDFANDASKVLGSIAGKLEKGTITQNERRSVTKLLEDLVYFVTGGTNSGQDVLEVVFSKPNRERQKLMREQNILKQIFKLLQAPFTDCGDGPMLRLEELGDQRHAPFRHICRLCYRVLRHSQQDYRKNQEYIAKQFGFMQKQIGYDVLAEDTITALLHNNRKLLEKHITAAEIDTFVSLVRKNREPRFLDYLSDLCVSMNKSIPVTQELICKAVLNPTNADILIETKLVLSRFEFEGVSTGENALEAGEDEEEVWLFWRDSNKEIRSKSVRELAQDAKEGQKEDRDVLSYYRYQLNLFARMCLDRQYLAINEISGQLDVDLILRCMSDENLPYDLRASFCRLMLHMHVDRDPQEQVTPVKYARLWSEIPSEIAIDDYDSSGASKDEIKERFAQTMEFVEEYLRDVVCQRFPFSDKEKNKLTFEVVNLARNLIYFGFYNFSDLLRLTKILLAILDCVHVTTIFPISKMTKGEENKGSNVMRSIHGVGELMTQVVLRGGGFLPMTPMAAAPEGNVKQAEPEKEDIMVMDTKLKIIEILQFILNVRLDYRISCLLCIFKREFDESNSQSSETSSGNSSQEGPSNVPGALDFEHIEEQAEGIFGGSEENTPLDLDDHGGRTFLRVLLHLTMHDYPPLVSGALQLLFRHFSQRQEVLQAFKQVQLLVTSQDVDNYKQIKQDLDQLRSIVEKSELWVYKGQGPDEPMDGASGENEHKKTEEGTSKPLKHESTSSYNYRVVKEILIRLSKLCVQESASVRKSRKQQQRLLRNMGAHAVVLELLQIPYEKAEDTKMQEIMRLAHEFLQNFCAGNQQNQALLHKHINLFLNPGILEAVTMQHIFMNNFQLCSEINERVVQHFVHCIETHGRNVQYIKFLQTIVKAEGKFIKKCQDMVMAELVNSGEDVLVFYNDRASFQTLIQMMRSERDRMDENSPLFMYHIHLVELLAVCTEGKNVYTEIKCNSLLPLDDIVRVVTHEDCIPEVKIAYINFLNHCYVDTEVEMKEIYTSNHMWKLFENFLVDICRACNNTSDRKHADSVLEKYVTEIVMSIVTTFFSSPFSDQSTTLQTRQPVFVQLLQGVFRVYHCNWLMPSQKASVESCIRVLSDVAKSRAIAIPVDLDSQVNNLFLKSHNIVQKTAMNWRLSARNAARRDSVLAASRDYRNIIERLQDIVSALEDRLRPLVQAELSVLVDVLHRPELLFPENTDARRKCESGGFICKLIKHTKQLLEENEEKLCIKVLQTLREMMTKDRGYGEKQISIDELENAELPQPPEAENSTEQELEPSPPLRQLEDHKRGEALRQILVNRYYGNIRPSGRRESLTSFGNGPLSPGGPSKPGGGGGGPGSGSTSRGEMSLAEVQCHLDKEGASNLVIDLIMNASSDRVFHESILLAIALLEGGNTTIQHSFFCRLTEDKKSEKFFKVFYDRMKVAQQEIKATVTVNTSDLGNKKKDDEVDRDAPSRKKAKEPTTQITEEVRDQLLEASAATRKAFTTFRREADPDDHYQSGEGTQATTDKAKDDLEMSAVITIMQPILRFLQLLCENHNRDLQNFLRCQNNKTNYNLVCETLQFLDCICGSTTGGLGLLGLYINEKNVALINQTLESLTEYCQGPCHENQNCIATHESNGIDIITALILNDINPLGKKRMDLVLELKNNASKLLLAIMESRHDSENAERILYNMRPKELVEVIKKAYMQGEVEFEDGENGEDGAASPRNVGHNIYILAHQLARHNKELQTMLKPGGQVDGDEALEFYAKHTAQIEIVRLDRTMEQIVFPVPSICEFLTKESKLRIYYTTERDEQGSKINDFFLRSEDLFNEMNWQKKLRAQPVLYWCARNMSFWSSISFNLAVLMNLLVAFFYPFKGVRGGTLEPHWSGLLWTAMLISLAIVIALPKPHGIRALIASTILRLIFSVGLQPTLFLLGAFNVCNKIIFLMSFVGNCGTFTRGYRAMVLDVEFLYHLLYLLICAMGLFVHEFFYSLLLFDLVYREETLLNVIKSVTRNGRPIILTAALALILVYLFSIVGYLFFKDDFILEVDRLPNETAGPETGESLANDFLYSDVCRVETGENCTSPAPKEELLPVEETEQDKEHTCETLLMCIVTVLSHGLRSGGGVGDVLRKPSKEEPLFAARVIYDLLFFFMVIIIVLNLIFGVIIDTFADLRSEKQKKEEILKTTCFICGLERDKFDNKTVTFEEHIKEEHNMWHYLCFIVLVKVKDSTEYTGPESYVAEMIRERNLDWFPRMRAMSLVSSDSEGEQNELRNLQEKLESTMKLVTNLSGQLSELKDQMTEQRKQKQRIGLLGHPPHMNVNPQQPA
T3 sequence (P29994 1-589 isoform P29994-2 limits assumed, stated change not applied): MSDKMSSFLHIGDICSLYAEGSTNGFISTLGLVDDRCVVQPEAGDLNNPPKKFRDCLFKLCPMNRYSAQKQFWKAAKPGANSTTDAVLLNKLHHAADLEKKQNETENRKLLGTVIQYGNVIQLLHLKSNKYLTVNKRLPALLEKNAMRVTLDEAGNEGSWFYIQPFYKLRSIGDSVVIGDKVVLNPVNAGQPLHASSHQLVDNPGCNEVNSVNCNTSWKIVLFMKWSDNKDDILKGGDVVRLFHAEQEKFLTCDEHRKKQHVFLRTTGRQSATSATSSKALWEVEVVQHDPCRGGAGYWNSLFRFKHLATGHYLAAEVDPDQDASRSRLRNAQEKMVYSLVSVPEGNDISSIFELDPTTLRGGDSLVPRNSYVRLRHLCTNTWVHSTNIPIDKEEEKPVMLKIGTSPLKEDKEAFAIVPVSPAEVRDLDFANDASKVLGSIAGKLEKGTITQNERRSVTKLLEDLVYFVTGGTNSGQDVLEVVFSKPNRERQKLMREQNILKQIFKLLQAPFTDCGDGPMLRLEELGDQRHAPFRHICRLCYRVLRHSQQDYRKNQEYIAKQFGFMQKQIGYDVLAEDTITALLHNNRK
T8 sequence (P29994 1-589 isoform P29994-2 L60E limits assumed): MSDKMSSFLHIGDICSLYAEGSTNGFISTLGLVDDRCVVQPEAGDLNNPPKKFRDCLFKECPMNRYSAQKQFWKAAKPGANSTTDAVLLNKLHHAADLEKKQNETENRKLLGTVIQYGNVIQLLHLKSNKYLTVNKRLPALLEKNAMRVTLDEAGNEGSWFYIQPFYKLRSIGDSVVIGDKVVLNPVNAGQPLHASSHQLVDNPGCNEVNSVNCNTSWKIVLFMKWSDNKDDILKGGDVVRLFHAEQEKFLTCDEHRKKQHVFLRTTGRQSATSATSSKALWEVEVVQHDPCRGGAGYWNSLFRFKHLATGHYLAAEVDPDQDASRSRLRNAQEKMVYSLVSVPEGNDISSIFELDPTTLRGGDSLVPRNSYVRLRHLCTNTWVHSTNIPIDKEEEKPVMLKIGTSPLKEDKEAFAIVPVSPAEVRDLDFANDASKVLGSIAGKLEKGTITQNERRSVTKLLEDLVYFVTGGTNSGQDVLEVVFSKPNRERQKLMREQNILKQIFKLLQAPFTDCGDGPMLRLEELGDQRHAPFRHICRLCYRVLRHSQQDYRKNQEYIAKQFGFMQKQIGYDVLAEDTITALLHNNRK
T1 sequence (P29994 224-589 isoform P29994-2 limits assumed, stated change not applied): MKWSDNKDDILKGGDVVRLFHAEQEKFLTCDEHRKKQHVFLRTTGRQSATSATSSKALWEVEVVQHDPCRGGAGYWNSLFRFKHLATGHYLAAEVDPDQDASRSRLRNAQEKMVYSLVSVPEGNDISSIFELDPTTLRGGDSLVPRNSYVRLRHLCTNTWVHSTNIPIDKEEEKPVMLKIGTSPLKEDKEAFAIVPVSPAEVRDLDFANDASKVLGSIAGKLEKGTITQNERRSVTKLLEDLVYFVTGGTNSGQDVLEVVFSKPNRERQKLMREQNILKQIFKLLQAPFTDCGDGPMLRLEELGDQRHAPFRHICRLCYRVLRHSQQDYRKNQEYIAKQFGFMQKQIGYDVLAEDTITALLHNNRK
T5 sequence (P29994 1-589 isoform P29994-2 F53E limits assumed): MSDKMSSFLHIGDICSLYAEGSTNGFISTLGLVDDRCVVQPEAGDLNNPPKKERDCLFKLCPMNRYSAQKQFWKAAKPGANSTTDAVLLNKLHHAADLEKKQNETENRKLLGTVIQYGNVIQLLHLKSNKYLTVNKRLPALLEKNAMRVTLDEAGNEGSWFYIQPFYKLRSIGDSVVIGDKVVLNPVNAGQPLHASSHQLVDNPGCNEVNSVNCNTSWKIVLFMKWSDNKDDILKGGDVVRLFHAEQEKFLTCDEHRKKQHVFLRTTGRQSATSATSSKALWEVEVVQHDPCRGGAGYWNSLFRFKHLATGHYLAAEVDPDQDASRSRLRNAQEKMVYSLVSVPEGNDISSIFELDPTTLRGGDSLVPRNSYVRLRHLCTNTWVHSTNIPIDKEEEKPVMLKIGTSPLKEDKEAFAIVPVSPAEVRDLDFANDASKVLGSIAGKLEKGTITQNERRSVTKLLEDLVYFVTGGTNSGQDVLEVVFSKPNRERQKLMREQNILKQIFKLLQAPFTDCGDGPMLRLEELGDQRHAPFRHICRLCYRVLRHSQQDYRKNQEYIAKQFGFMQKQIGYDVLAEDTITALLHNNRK

Take “Ac-KKFRDALFKLAPMNRY-NH2 [1-8-14 peptide, Ac-KKFRDALFKLAPMNRY-NH2]”: the “effect on IP3 binding to the IBC” value in test [1] is on record as “unaffected”. Moreover, in test [2] (3 mM peptide, +40 mV), the “decrease in overall channel activity (NPo)” value was ~ 10 fold and the “decrease in the mean channel open time (τo)” value stood at 50%. The “single-channel conductance (γCs)” value in [2] (peptide-treated IP3Rs (3 mM), n=3, control 214±6 pS) was found to be 209±6 pS. In test [3] (1 mM peptide, maximally effective IP3), the “dependence of inhibition on cytosolic free Ca2+ concentration” value is on record as “enhanced at elevated cytosolic Ca^2+ concentrations”. Further, the “reversibility of inhibition of IP3-evoked Ca2+ release” value in test [3] (3 mM peptide 10–20 min, washed, rechallenged) was “fully reversible”. For the same compound, the “effect on the sensitivity (EC50) to IP3” value in [3] (3 mM peptide, pre-incubation 2.5 min) was “without affecting”. In [3] (3 mM peptide, similar for all IP3 concentrations, read-out: percentage inhibition of IP3-evoked Ca2+ release), the inhibition at 3000 µM is approximately 75%. The Emax in test [3] (maximally effective concentration of the peptide, read-out: reduction of the maximal response to IP3) was 77 ± 7%. Also, in test [3] (permeabilized DT40-IP3R1 cells), the “effect on Ca2+ uptake” value is “without affecting”. The IC50 in test [3] (permeabilized DT40-IP3R1 cells pre-incubated 10–20 min with peptide, IP3 10 μM, 220 nM free Ca2+, read-out: IC50 for inhibition of IP3-evoked Ca2+ release) is 767 µM. In addition, in test [4] (CLM with 220 nM free Ca2+, read-out: EC50 for stimulating [3H]IP3 binding to the NT), the 50% effective concentration (EC50) is 615 µM. For the same compound, the “effect on specific binding of [3H]IP3 to full-length IP3R1” value in test [5] is “increased”.

As to `CC[C@H](C)[C@H](NC(=O)[C@H](C)NC(=O)[C@H](CCCNC(=N)N)NC(=O)[C@@H](NC(=O)[C@H](C)NC(=O)[C@H](Cc1c[nH]cn1)NC(=O)CNC(=O)[C@@H](NC(=O)[C@H](CCCCN)NC(=O)[C@H](CCC(N)=O)NC(=O)[C@H](Cc1c[nH]c2ccccc12)NC(=O)[C@H](CCCCN)NC(=O)[C@H](CCCNC(=N)N)NC(=O)[C@H](CCCNC(=N)N)NC(C)=O)[C@@H](C)O)C(C)C)C(=O)NCC(=O)N[C@@H](CCCNC(=N)N)C(=O)N[C@@H](CC(C)C)C(N)=O` [MLCK peptide, Ac-RRKWQKTGHAVRAIGRL-NH2], the “effect on specific [3H]IP3 binding to NT F53E” value in [6] was “neither peptide had any effect”. Further, the “effect on IP3 binding to full-length wild-type IP3R” value in test [7] is on record as “increased”. Further, in [4] (100 μM peptide, [3H]IP3 1.5 nM), the “effect on specific [3H]IP3 binding to the NT” value is given as “increased”. In addition, in test [8], the “effect on specific [3H]IP3 binding to NT Y66E” value is on record as “neither peptide had any effect”. The “effect on specific [3H]IP3 binding to NT L60E” value in test [9] is reported as “neither peptide had any effect”.

The term inhibition denotes the percentage by which the read-out fell short of the control. What is called IC50 is the point on the concentration scale where inhibition reaches its midpoint. Usually EC50 stands for the concentration at which the effect is half-maximal.
